In patent US9200051B2, “Peptide compound” (TAKEDA PHARMACEUTICAL COMPANY LIMITED, priority 2013, dated 2015) one finds EC50 data, which are given here for four compounds.

What all share (assay type): cell-based
The target of one experiment is T1, human glucagon R (Homo sapiens, UniProt P47871).
T1 construct: expressed in transfected cells; host or cells: CHO-K1 (CRE-LUC/CHO-K1), plasmid hGlucagonR/pMSRα-neo
As to the kind of experiment: Agonist activity against human glucagon R, CRE-luciferase reporter assay in hGlucagonR/CRE-LUC/CHO-K1 cells. An excerpt: (§1) Evaluation of agonist activity against human GIPR, human GLP-1R and human glucagon R using rise in intracellular cAMP concentration as index
(§2) The luciferase reporter gene having an upstream cAMP response sequence was introduced to CHO-K1 cells to construct CRE-LUC/CHO-K1 cells.
The human glucagon R gene having a sequence identical to the sequence of GenBank Accession No. NM_000160 was cloned into pMSRα-neo vector to prepare hGlucagonR/pMSRα-neo.
The plasmid hGlucagonR/pMSRα-neo obtained in (7) was introduced to the CRE-LUC/CHO-K1 cells obtained in (2) to obtain transformants. Next, a cell line induced to express luciferase, i.e., hGlucagonR/CRE-LUC/CHO-K1 cells, were selected from the obtained transformants by the addition of glucagon.
(§3) The hGIPR/CRE-LUC/CHO-K1 cells were inoculated at a cell density of 25 μL/well (5×10^4 cells/well) to a 384-well white plate (Corning), and cultured overnight in Ham F12 medium containing 10% fetal bovine serum, 100 U/mL penicillin and 100 μg/mL streptomycin in a CO2 incubator of 37° C. A medium containing a test compound was added at a concentration of 5 μL/well to the cells, and the resultant cells were incubated for 4 hours in a CO2 incubator of 37° C. to give the final concentration of 1 μM. PicaGene LT7.5 (Toyo Ink Co., Ltd.) was added thereto at a concentration of 30 μL/well, and the mixture was shaken with light shielded. After 30 minutes, the luciferase activity was measured using a plate reader Envision (PerkinElmer). The luciferase activity in the presence of 10 nM GIP was defined as 100%, and the luciferase activity from the addition of DMSO instead of the test compound was defined as 0%. The GIPR agonist activity was calculated with a rise in intracellular cAMP concentration as an index.
The glucagon R agonist activity was assayed in the same way as above using the hGlucagonR/CRE-LUC/CHO-K1 cells. The luciferase activity in the presence of 10 nM glucagon was defined as 100%, and the luciferase activity from the addition of DMSO instead of the test compound was defined as 0%. The glucagon agonist activity was calculated with a rise in intracellular cAMP concentration as an index.
On the technique in general: Reporter assays use an easily measured gene product as a stand-in for the process of interest.

The target of another experiment is T2, human GLP-1R (Homo sapiens, UniProt P43220).
T2 construct: expressed in transfected cells; host or cells: CHO-K1, plasmids hGLP-1/pIRESneo3 and Cre-luc(Zeo)
T2 sequence (P43220 24-463): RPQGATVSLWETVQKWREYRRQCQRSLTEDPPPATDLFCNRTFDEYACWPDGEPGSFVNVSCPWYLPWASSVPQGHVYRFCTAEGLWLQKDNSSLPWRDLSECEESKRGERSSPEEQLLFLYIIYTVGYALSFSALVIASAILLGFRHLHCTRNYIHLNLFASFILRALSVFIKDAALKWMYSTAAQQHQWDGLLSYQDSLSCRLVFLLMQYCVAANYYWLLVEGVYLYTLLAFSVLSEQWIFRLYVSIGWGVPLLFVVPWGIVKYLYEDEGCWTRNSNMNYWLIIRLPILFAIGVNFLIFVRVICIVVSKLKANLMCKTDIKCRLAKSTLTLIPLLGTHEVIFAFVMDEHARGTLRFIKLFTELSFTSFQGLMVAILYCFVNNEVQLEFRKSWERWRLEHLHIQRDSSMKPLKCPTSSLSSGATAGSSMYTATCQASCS
As to the kind of experiment: Agonist activity against human GLP-1R, CRE-luciferase reporter assay in hGLP-1R/CRE-luc/CHO-K1 cells.
Excerpt: as §1
Four copies of the cAMP response sequence and the Zeocin resistance gene were introduced to pGL3(R2.2)-Basic Vector (Promega) to construct Cre-luc(Zeo) reporter plasmid.
The human GLP-1R gene having a sequence identical to the sequence of GenBank Accession No. NM_002062 was cloned into pIRESneo3 vector to prepare hGLP-1/pIRESneo3.
The Cre-luc(Zeo) obtained in (3) and the plasmid hGLP-1/pIRESneo3 obtained in (5) were introduced to CHO-K1 cells to obtain transformants. Next, a cell line induced to express luciferase, i.e., hGLP-1R/CRE-luc/CHO-K1 cells, were selected from the obtained transformants by the addition of GLP-1.
as §3
The GLP-1R agonist activity was assayed in the same way as above using the hGLP-1R/CRE-luc/CHO-K1 cells. The luciferase activity in the presence of 10 nM GLP-1 was defined as 100%, and the luciferase activity from the addition of DMSO instead of the test compound was defined as 0%. The GLP-1R agonist activity was calculated with a rise in intracellular cAMP concentration as an index.

In another experiment the target is T3, human GIPR (Homo sapiens, UniProt P48546).
T3 construct: expressed in transfected cells; host or cells: CHO-K1 (CRE-LUC/CHO-K1), plasmid hGIPR/pMSRα-neo
T3 sequence (P48546 22-466): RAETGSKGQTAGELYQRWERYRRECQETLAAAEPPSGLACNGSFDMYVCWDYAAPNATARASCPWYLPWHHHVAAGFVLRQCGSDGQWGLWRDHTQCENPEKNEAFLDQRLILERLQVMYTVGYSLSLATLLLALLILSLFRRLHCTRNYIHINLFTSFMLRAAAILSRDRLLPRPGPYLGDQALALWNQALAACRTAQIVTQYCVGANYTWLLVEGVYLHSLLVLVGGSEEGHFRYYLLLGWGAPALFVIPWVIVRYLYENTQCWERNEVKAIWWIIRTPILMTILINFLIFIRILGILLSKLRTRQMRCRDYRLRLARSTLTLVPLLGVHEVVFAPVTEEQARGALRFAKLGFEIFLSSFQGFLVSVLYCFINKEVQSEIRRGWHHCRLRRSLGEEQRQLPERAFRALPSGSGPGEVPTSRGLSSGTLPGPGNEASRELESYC
As to the kind of experiment: Agonist activity against human GIPR, CRE-luciferase reporter assay (rise in intracellular cAMP) in hGIPR/CRE-LUC/CHO-K1 cells.
Excerpt: as §1
The human GIPR gene having a sequence identical to the sequence of GenBank Accession No. U39231 was cloned into pMSRα-neo vector to prepare hGIPR/pMSRα-neo.
as §2
The plasmid hGIPR/pMSRα-neo obtained in (1) was introduced to the CRE-LUC/CHO-K1 cells obtained in (2) to obtain transformants. Next, a cell line induced to express luciferase, i.e., hGIPR/CRE-LUC/CHO-K1 cells, were selected from the obtained transformants by the addition of GIP.
as §3

By EC50 is commonly meant the concentration needed to bring the measured effect to its halfway point. Higher therefore signals a less potent agent.

Square brackets hold non-standard residues; d marks the D form. Peptide text beside a SMILES is read from it. αMeF = C[C@](N)(Cc1ccccc1)C(=O)O; Aib = CC(C)(N)C(=O)O

T1 sequence (P47871 26-477): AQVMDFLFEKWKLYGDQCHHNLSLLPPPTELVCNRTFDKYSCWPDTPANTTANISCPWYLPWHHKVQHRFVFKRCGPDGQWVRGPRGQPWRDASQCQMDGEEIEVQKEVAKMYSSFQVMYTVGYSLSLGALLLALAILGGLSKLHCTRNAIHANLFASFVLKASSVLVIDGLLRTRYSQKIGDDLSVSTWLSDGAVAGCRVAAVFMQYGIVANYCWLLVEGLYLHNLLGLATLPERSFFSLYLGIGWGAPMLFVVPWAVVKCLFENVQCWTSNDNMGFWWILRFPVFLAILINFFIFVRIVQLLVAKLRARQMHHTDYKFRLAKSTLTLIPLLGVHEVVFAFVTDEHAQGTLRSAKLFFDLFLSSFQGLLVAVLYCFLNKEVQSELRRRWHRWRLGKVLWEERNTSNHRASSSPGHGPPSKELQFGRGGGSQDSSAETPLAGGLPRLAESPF

Regarding `CC[C@H](C)[C@H](NC(=O)[C@H](C)NC(=O)[C@H](Cc1ccc(O)cc1)NC(=O)[C@H](CC(=O)O)NC(=O)[C@H](CO)NC(=O)[C@@H](NC(=O)[C@](C)(Cc1ccccc1)NC(=O)[C@@H](NC(=O)CNC(=O)[C@H](CCC(=O)O)NC(=O)C(C)(C)NC(=O)[C@@H](N)Cc1ccc(O)cc1)[C@@H](C)O)[C@@H](C)O)C(=O)NC(C)(C)C(=O)N[C@@H](CC(C)C)C(=O)N[C@@H](CC(=O)O)C(=O)N[C@@H](CCCCN)C(=O)N[C@@H](CCC(N)=O)C(=O)N[C@@H](C)C(=O)N[C@@H](CCC(N)=O)C(=O)N[C@@H](CO)C(=O)N[C@@H](CCC(=O)O)C(=O)N[C@@H](Cc1ccccc1)C(=O)N[C@H](C(=O)N[C@@H](CCCCN)C(=O)N[C@@H](Cc1c[nH]c2ccccc12)C(=O)N[C@@H](CC(C)C)C(=O)N[C@@H](CC(C)C)C(=O)N[C@@H](CCCCN)C(=O)NCC(=O)NCC(=O)N1CCC[C@H]1C(=O)N[C@@H](CO)C(=O)N[C@@H](CO)C(=O)NCC(=O)N[C@@H](C)C(=O)N1CCC[C@H]1C(=O)N1CCC[C@H]1C(=O)N1CCC[C@H]1C(=O)N[C@@H](CO)C(=O)N[C@@H](CCCCN)C(N)=O)C(C)C` [Example 3] (H-Y[Aib]EGT[αMeF]TSDYAI[Aib]LDKQAQSEFVKWLLKGGPSSGAPPPSK-NH2), the EC50 on human glucagon R is over 1000 nM; at human GLP-1R it was 0.013 nM; at human GIPR it was 0.0071 nM.
Turning to `CC[C@H](C)[C@H](NC(=O)[C@H](C)NC(=O)[C@H](Cc1ccc(O)cc1)NC(=O)[C@H](CC(=O)O)NC(=O)[C@H](CO)NC(=O)[C@@H](NC(=O)[C@](C)(Cc1ccccc1)NC(=O)[C@@H](NC(=O)CNC(=O)[C@H](CCC(=O)O)NC(=O)C(C)(C)NC(=O)[C@@H](N)Cc1ccc(O)cc1)[C@@H](C)O)[C@@H](C)O)C(=O)NC(C)(C)C(=O)N[C@@H](CC(C)C)C(=O)N[C@@H](CC(=O)O)C(=O)N[C@@H](CCCCN)C(=O)N[C@@H](CCC(N)=O)C(=O)N[C@@H](C)C(=O)N[C@@H](CCC(N)=O)C(=O)N[C@@H](C)C(=O)N[C@@H](CCC(=O)O)C(=O)N[C@@H](Cc1ccccc1)C(=O)N[C@H](C(=O)N[C@@H](CCCCN)C(=O)N[C@@H](Cc1c[nH]c2ccccc12)C(=O)N[C@@H](CC(C)C)C(=O)N[C@@H](CC(C)C)C(=O)N[C@@H](CCCCN)C(=O)NCC(=O)NCC(=O)N1CCC[C@H]1C(=O)N[C@@H](CO)C(=O)N[C@@H](CO)C(=O)NCC(=O)N[C@@H](C)C(=O)N1CCC[C@H]1C(=O)N1CCC[C@H]1C(=O)N1CCC[C@H]1C(=O)N[C@@H](CO)C(=O)N[C@@H](CCCCN)C(N)=O)C(C)C` [Example 1] (H-Y[Aib]EGT[αMeF]TSDYAI[Aib]LDKQAQAEFVKWLLKGGPSSGAPPPSK-NH2), the EC50 on human glucagon R was over 1000 nM; at human GLP-1R, 0.012 nM; on human GIPR it was 0.0081 nM.
For `CC[C@H](C)[C@H](NC(=O)C(C)(C)NC(=O)[C@H](Cc1ccc(O)cc1)NC(=O)[C@H](CC(=O)O)NC(=O)[C@H](CO)NC(=O)[C@@H](NC(=O)[C@](C)(Cc1ccccc1)NC(=O)[C@@H](NC(=O)CNC(=O)[C@H](CCC(=O)O)NC(=O)C(C)(C)NC(=O)[C@@H](N)Cc1ccc(O)cc1)[C@@H](C)O)[C@@H](C)O)C(=O)N[C@@](C)(Cc1ccccc1)C(=O)N[C@@H](CC(C)C)C(=O)N[C@@H](CC(=O)O)C(=O)N[C@@H](CCCCN)C(=O)N[C@@H](CCC(N)=O)C(=O)N[C@@H](C)C(=O)N[C@@H](CCC(N)=O)C(=O)N[C@@H](C)C(=O)N[C@@H](CCC(=O)O)C(=O)N[C@@H](Cc1ccccc1)C(=O)N[C@H](C(=O)N[C@@H](CCCCN)C(=O)N[C@@H](Cc1c[nH]c2ccccc12)C(=O)N[C@@H](CC(C)C)C(=O)N[C@@H](CC(C)C)C(=O)N[C@@H](CCCCN)C(=O)NCC(=O)NCC(=O)N1CCC[C@H]1C(=O)N[C@@H](CO)C(=O)N[C@@H](CO)C(=O)NCC(=O)N[C@@H](C)C(=O)N1CCC[C@H]1C(=O)N1CCC[C@H]1C(=O)N1CCC[C@H]1C(=O)N[C@@H](CO)C(=O)N[C@@H](CCCCN)C(N)=O)C(C)C` [Example 13] (H-Y[Aib]EGT[αMeF]TSDY[Aib]I[αMeF]LDKQAQAEFVKWLLKGGPSSGAPPPSK-NH2), the EC50 at human glucagon R is over 1000 nM; at human GLP-1R, 0.011 nM; at human GIPR, 0.0072 nM.
As for `CC(C)C[C@H](NC(=O)[C@H](CC(C)C)NC(=O)[C@H](Cc1c[nH]c2ccccc12)NC(=O)[C@H](CCCCN)NC(=O)[C@@H](NC(=O)[C@H](Cc1ccccc1)NC(=O)[C@H](CCC(=O)O)NC(=O)[C@H](C)NC(=O)[C@H](CCC(N)=O)NC(=O)[C@H](C)NC(=O)[C@H](CCC(N)=O)NC(=O)[C@H](CCCCN)NC(=O)[C@H](CC(=O)O)NC(=O)[C@H](CC(C)C)NC(=O)[C@](C)(Cc1ccccc1)NC(=O)[C@H](CCCCN)NC(=O)C(C)(C)NC(=O)[C@H](Cc1ccc(O)cc1)NC(=O)[C@H](CC(=O)O)NC(=O)[C@H](CO)NC(=O)[C@@H](NC(=O)[C@](C)(Cc1ccccc1)NC(=O)[C@@H](NC(=O)CNC(=O)[C@H](CCC(=O)O)NC(=O)C(C)(C)NC(=O)[C@@H](N)Cc1ccc(O)cc1)[C@@H](C)O)[C@@H](C)O)C(C)C)C(=O)N[C@@H](CCCCN)C(=O)NCC(=O)NCC(=O)N1CCC[C@H]1C(=O)N[C@@H](CO)C(=O)N[C@@H](CO)C(=O)NCC(=O)N[C@@H](C)C(=O)N1CCC[C@H]1C(=O)N1CCC[C@H]1C(=O)N1CCC[C@H]1C(=O)N[C@@H](CO)C(=O)N[C@@H](CCCCN)C(N)=O` [Example 15] (H-Y[Aib]EGT[αMeF]TSDY[Aib]K[αMeF]LDKQAQAEFVKWLLKGGPSSGAPPPSK-NH2), the figures for the EC50 on human glucagon R, at human GLP-1R and at human GIPR were over 1000 nM, 0.015 nM and 0.013 nM, respectively.
